One series concerns CD83 and CD11c. The settings on record: responders of Alefacept therapy; cited from earlier work.
The nature of series [1]: API-excipient compatibility, 1 month at 40° C. and 60° C. The format is physicochemical. The conditions noted are these: for % Deg. w/Main peak: 1 month 40° C. As to the method: For the pre-formulation work Compound 50 was mixed with varying ratios of excipients commonly encountered in topical formulations.
The Compound 50 Pre-Formulation Studies began with the addition of each individual excipient to 500 mg of the Active Pharmaceutical Ingredient (API). Table I below explains the detail ratio between each excipient and API used for this study.
The samples, once prepared in scintillation vials, were kept at 40° C. and 60° C. for over one month. The samples were analyzed by the method (not validated) developed by the analytical support group.
The results in Tables III-V were analyzed with respect to Compound 50 standard to calculate % recovery of API in the presence of each excipient. […] Similar results in table V for samples 5-60° C., 6-60° C., 7-60° C., 8-60° C., 10-60° C., 17-60° C., and 18-60° C. were obtained which needs to be further analyzed.

The test system of another series is CD3+ cells. Description: Immunohistochemistry cell counts in skin biopsies, clinical psoriasis study. Format: in vivo, human. The settings on record: week 12, patients receiving 70 mg once a day. The protocol:
(§1) A multicenter, randomized, open-label, multiple oral dose outpatient study was done in patients with moderate to severe chronic plaque psoriasis. Patients received Compound 5021 mg or 35 mg orally twice daily (BID), 35 mg or 70 mg orally once per day (QD). Patients remained on study medication for a period of 12 weeks.
(§2) Tissue sections of skin biopsies were stained with hematoxylin (Fisher) and eosin (Shandon, Pittsburgh) and purified mouse anti-human mAbs to K16 (Sigma), CD3 (Becton Dickinson), CD11c (BD Pharmingen). Biotin-labeled horse anti-mouse antibody (Vector Laboratories) was amplified with avidin-biotin complex (Vector Laboratories) and developed with chromogen 3-amino-9-ethylcarbazole (Sigma Aldrich). Epidermal thickness measures were computed by using National Institutes of Health software (NIH IMAGE 6.1), and positive cells were counted manually by using computer-assisted image analysis.

Series [2] deals with CD11c+ cells (dendritic cells). The description is as above. Format: in vivo, human. The protocol:
as §1, §2

Series [3] in a line: Water solubility (statement). The format is physicochemical.
A further series relates to IL-10. As to the kind of experiment: TaqMan RT-PCR gene expression in skin biopsies, clinical psoriasis study. The settings on record: lesional psoriatic skin biopsies of patients, week 2 vs pre-treatment (wk0), oral dosing. Format: in vivo, human. The protocol: as §1
(§3) Lesional and nonlesional skin biopsies were collected from adults with chronic plaque-type psoriasis before and after treatment with Compound 50. The biopsies were processed using the QIAGEN RNeasy kit. Using a rotor-stator tissue homogenizer (saw-tooth rotor; PowerGen 700), frozen specimens were homogenized in buffer (RLT; QIAGEN) for 30-60 s and spun in a microcentrifuge for 3 min at room temperature to pellet debris. The supernatant was loaded onto a QIAGEN minicolumn and spun for 15s at high speed. A series of washes and DNase digestion was followed by final elution of RNA from the column. RNA was quantitated by UV spectrophotometry. The primers and probes for the TaqMan RT-PCR assays for IL-12/23 p40, IL-23 p19, and IL-10 were generated using the Primer Express algorithm version 1.0 from published sequences (National Center for Biotechnology Information). All primers and probes were synthesized by Applied Biosystems-PerkinElmer. RT-PCR reactions were performed according to the manufacturer's directions (EZ PCR Core Reagents; TaqMan and Applied Biosystems). The human acidic ribosomal protein gene (hARP), a housekeeping gene, was used to normalize each sample and each gene.
(§4) Gene expression levels at week 2 (wk2) were compared to pre-treatment levels in lesional psoriatic skin (wk0). […] In the same biopsy samples, an increase in mRNA IL-10, an anti-inflammatory cytokine, was observed (FIG. 1C).
A general note: In qPCR the cycle at which signal appears reflects the starting amount.

The next series concerns IL-23 p19. The description is as above. Format: in vivo, human. The conditions noted are these: lesional psoriatic skin biopsies of patients, week 2 vs pre-treatment (wk0), oral dosing, normalized to hARP. As to the method: as §1, §3, §4
The subject of a further series is IL-12/23 p40. Described as above. The conditions noted are these: lesional psoriatic skin biopsies of patients, week 2 vs pre-treatment (wk0), oral dosing, normalized to hARP. Format: in vivo, human. As to the method:
as §1, §3, §4

Where [4] appears, read: week 12, patients receiving 70 mg once a day.

Entries after “also recorded” stand apart in the source; their conditions may differ.

Take Alefacept: in the series with CD83 and CD11c, the “CD83 and CD11c immunostaining” value was “decreases”.
For `Cc1cccc(/C=N/Nc2cc(N3CCOCC3)nc(OCCc3ccccn3)n2)c1` [Compound 50, N-(3-Methyl-benzylidene)-N′-[6-morpholin-4-yl-2-(2-pyridin-2-yl-ethoxy)-pyrimidin-4-yl]-hydrazine], the “% Deg. w/Main peak” value in series [1] (with Methylparaben, 1st impurity peak RRT 0.52) is recorded as 0.34%; in series [1] (with Propylparaben, 1st impurity peak RRT 0.78), 8.96%. The “w/Main Peak” value in series [1] (with Methylparaben, 1 month 60° C., impurity peak 0.51) came to 13.75%; in series [1] (with PEG-300, 1 month 60° C., impurity peak 0.60), 0.51%; in series [1] (with PEG-400, 1 month 60° C., impurity peak 0.60), 1.87%; in series [1] (with Polysorbate 80, 1 month 60° C., impurity peak 0.60), 1.30%; in series [1] (with Propylene Glycol, 1 month 60° C., impurity peak 0.60), 0.11%; in series [1] (with Propylparaben, 1 month 60° C., impurity peak 0.78), 6.37%. Moreover, in series [1] (with Sorbitan Monooleate, 1 month 60° C., impurity peak 0.59), the “w/Main Peak” value is listed as 8.25%. Moreover, the “CD3+ cells in dermis (CD3DER)” value in the series on CD3+ cells was “significant but less pronounced decreases”. Besides, the “CD3+ cells in epidermis (CD3EPI)” value in the series on CD3+ cells was “significant but less pronounced decreases”. Also, the “CD11c+ cells in epidermis count” value in series [2] (all nonresponders, week 12) was “no significant reduction”. Further, the “decrease in CD11c+ cells in epidermis” value in series [2] (all responder patients (histological improvement at week 12)) is listed as about 100%. The “CD11c+ cells in dermis (CD11DER)” value in series [2] (setting [4]) was “significant but less pronounced decreases”. The “CD11c+ cells in epidermis (CD11EPI)” value in series [2] (setting [4]) is on record as “marked decrease”. In addition, in series [3], the water solubility entry is on record as “not water soluble”. Further, in the series on IL-10, the “IL-10 mRNA” value is “increase”. Further, the “IL-23 p19 gene expression” value in the series on IL-23 p19 was “reduced; also recorded: decrease”. Also, the “IL-12/23 p40 gene expression” value with IL-12/23 p40 is “reduced; also recorded: decrease”.

These data come from US20110098267A1, “TOPICAL FORMULATIONS FOR THE TREATMENT OF PSORIASIS” (Synta Pharmaceuticals Corporation, priority 2008, published 2011).
